Data: patent publication US20160346249A1 (priority 2012, published 2016)

Tests used:
[1] = 13-week rat toxicity and toxicokinetic study; type: in vivo; conditions: for AUC(0-t): read-out: AUC0-24
Description: In two separate experiments, toxicology and toxicokinetic studies were performed. […] Blood samples were collected on Day 0 and Day 87 of the study from up to 3 animals/gender/group.
For toxicology assessment, clinical observations, body weight and food consumptions measures were noted periodically during the study. At termination, clinical pathology evaluations (hematology and serum chemistry) were performed, necropsies conducted, selected organs were weighed, and selected tissues examined microscopically.

[2] = Phase 1b multiple-dose placebo-controlled safety study, 8 weeks; type: in vivo, human
From the text: This Phase 1b study enrolled 46 male and female subjects.

[3] = 13-week dog toxicity and toxicokinetic study; type: in vivo; conditions: for AUC(0-t) / Cmax / Tmax: beagle, dog, in vivo; for AUC(0-t): read-out: AUC0-24; for body weight gain during the study: 20 mg/kg; for mean body weight lower than control: end of study
Description: […] For toxicology assessment, clinical observations, body weight, and food consumption measures were recorded periodically during the study. Ophthalmic examinations were performed and ECGs recorded during Weeks −1 and 12. Clinical pathology evaluations (hematology, serum chemistry, and urinalysis) were performed prior to the initiation of dose administration (Week −1) and prior to the scheduled necropsy (Week 13). At termination, complete necropsies were performed on all dogs and selected organs were weighed. Selected tissues from the control and 20 mg/kg/day group animals and animals euthanized in extremis were examined microscopically. Gross lesions from the 2 and 6 mg/kg/day groups were also examined.

[4] = system: Caco-2 cells; assay: in vitro; type: in vitro ADME; conditions: human, Caco-2, 2 h, 10 μM, pH 7.4
Description: (Kalamazoo, Mich.). […] Receiver solutions consisted of buffer only. Sequential samples of transported solute are taken at 20 minute intervals in duplicate over 2 hours and the concentration of the transported compound was determined by HPLC-UV/MS. Test sample concentration is determined by LC/MS. Permeability coefficients are calculated for each sampling interval, and averages from the intervals were determined. The apparent permeability coefficient Papp is calculated from the equation where dQ/dt is the rate of permeation of drug across the cells, C0 is the original concentration in donor compartment at time zero, and A is the area of the cell monolayer. Mass balance in the system is ascertained by comparing the sum of transported solute and remaining donor solute to the starting solution concentration. The integrity of the monolayers is verified by monitoring Lucifer yellow permeation and the known P-glycoprotein substrate […] is used as a positive control.

[5] = female, Crl:CD (SD)IGS BR, rat, in vivo, po, 10 mg/kg/day, females, 10 mg/kg/day, Day 0
[6] = female, Crl:CD(SD)IGS BR, rat, in vivo, po, 10 mg/kg/day, females, 10 mg/kg/day, Day 87
[7] = female, Crl:CD(SD)IGS BR, rat, in vivo, po, 25 mg/kg/day, females, 25 mg/kg/day, Day 0
[8] = female, Crl:CD(SD)IGS BR, rat, in vivo, po, 25 mg/kg/day, females, 25 mg/kg/day, Day 87
[9] = female, Crl:CD(SD)IGS BR, rat, in vivo, po, 60 mg/kg/day, females, 60 mg/kg/day, Day 0
[10] = female, Crl:CD(SD)IGS BR, rat, in vivo, po, 60 mg/kg/day, females, 60 mg/kg/day, Day 87
[11] = male, Crl:CD(SD)IGS BR, rat, in vivo, po, 10 mg/kg/day, males, 10 mg/kg/day, Day 0
[12] = male, Crl:CD(SD)IGS BR, rat, in vivo, po, 10 mg/kg/day, males, 10 mg/kg/day, Day 87
[13] = male, Crl:CD(SD)IGS BR, rat, in vivo, po, 25 mg/kg/day, males, 25 mg/kg/day, Day 0
[14] = male, Crl:CD(SD)IGS BR, rat, in vivo, po, 25 mg/kg/day, males, 25 mg/kg/day, Day 87
[15] = male, Crl:CD(SD)IGS BR, rat, in vivo, po, 60 mg/kg/day, males, 60 mg/kg/day, Day 0
[16] = male, Crl:CD(SD)IGS BR, rat, in vivo, po, 60 mg/kg/day, males, 60 mg/kg/day, Day 87
[17] = 8 weeks, 25 to 75 mg BID, N = 31, Safety Population
[18] = female, po, 2 mg/kg/day, females, 2 mg/kg/day, Day 0
[19] = female, po, 2 mg/kg/day, females, 2 mg/kg/day, Day 86
[20] = female, po, 6 mg/kg/day, females, 6 mg/kg/day, Day 0
[21] = female, po, 6 mg/kg/day, females, 6 mg/kg/day, Day 86
[22] = female, po, 20 mg/kg/day, females, 20 mg/kg/day, Day 0
[23] = female, po, 20 mg/kg/day, females, 20 mg/kg/day, Day 86
[24] = male, po, 2 mg/kg/day, males, 2 mg/kg/day, Day 0
[25] = male, po, 2 mg/kg/day, males, 2 mg/kg/day, Day 86
[26] = male, po, 6 mg/kg/day, males, 6 mg/kg/day, Day 0
[27] = male, po, 6 mg/kg/day, males, 6 mg/kg/day, Day 86
[28] = male, po, 20 mg/kg/day, males, 20 mg/kg/day, Day 0
[29] = male, po, 20 mg/kg/day, males, 20 mg/kg/day, Day 86

## Clc1ccc([C@]23CNC[C@H]2C3)cc1Cl [amitifadine, (+)-1-(3,4-dichlorophenyl)-3-azabicyclo[3.1.0]hexane]
[1]; 60 mg/kg/day, first week
  test article-related deaths (number of females): Three
[1]; all dose groups
  female vs male AUC0-24 and Cmax difference: up to 85%
[1]; both sexes, Crl:CD(SD)IGS BR, rat, in vivo, oral gavage, 13 weeks
  NOAEL at 13 weeks: 10 mg/kg/day
[1]; [5]
  Tmax: 1 h
  AUC(0-t): 10900 ng·h/mL
[1]; female, Crl:CD(SD)IGS BR, rat, in vivo, oral, 10 mg/kg/day, females, 10 mg/kg/day, Day 87
  AUC(0-t): 14400 ng·h/mL
[1]; [6]
  Cmax: 1850 ng/mL
  Tmax: 1 h
[1]; [7]
  Cmax: 2810 ng/mL
  Tmax: 2 h
  AUC(0-t): 31000 ng·h/mL
[1]; [8]
  Cmax: 3700 ng/mL
  Tmax: 2 h
  AUC(0-t): 30200 ng·h/mL
[1]; [9]
  Cmax: 6600 ng/mL
  Tmax: 2 h
  AUC(0-t): 54400 ng·h/mL
[1]; [10]
  Cmax: 6530 ng/mL
  Tmax: 2 h
  AUC(0-t): 88100 ng·h/mL
[1]; females, 25 mg/kg/day
  decrease in mean cumulative body weight gain vs control: 13%
[1]; females, 60 mg/kg/day
  decrease in mean cumulative body weight gain vs control: 13%
[1]; male, Crl:CD(SD)IGS BR, rat, in vivo, oral, 10 mg/kg/day, males, 10 mg/kg/day, Day 87
  AUC(0-t): 8130 ng·h/mL
[1]; [11]
  Cmax: 863 ng/mL
  Tmax: 2 h
  AUC(0-t): 5940 ng·h/mL
[1]; [12]
  Cmax: 1120 ng/mL
  Tmax: 1 h
[1]; [13]
  Cmax: 2360 ng/mL
  Tmax: 2 h
  AUC(0-t): 17400 ng·h/mL
[1]; [14]
  Cmax: 2490 ng/mL
  Tmax: 2 h
  AUC(0-t): 22000 ng·h/mL
[1]; [15]
  Cmax: 3680 ng/mL
  Tmax: 1 h
  AUC(0-t): 36300 ng·h/mL
[1]; [16]
  Cmax: 5010 ng/mL
  Tmax: 1 h
  AUC(0-t): 60100 ng·h/mL
[1]; males, 25 mg/kg/day
  decrease in mean cumulative body weight gain vs control: 16%
[1]; males, 60 mg/kg/day
  decrease in mean cumulative body weight gain vs control: 30%
[2]; [17]
  Abdomibal Pain Upper, % of subjects: 0.0%
  Abdomibal Pain Upper, number of subjects with AE: 0
  Abdominal Pain Lower, % of subjects: 0.0%
  Abdominal Pain Lower, number of subjects with AE: 0
  Diarrhea, % of subjects: 6.5%
  Diarrhea, number of subjects with AE: 2
  Dizziness, % of subjects: 6.5%
  Dizziness, number of subjects with AE: 2
  Gastroesophageal Reflux Disease, % of subjects: 0.0%
  Gastroesophageal Reflux Disease, number of subjects with AE: 0
  Headache, % of subjects: 22.6%
  Headache, number of subjects with AE: 7
  Hyperhidrosis, % of subjects: 3.2%
  Hyperhidrosis, number of subjects with AE: 1
  Increased Appetite, % of subjects: 3.2%
  Increased Appetite, number of subjects with AE: 1
  Metrorrhagia, % of subjects: 3.2%
  Metrorrhagia, number of subjects with AE: 1
  Nausea, % of subjects: 16.1%
  Nausea, number of subjects with AE: 5
  Pruritus, % of subjects: 3.2%
  Pruritus, number of subjects with AE: 1
  Rhinitis Allergic, % of subjects: 3.2%
  Rhinitis Allergic, number of subjects with AE: 1
  Skin Rash, % of subjects: 3.2%
  Skin Rash, number of subjects with AE: 1
  Subjects with at Least One AE, %: 35.5%
  Syncope, % of subjects: 0.0%
  Syncope, number of subjects with AE: 0
  Toothache, % of subjects: 3.2%
  Toothache, number of subjects with AE: 1
  Total Number of Subjects with at Least One AE: 11
[2]; 25-75 mg BID, 8 weeks
  proportion of subjects with TEAEs: 36%
[2]; Randomized Population, N = 31
  Completed Subjects, %: 74.2%
  Premature discontinuation: Adverse Event, %: 3.2%
  Premature discontinuation: Allergic Reaction to Study Medication, %: 3.2%
  Premature discontinuation: Lost to Follow Up, %: 3.2%
  Premature discontinuation: Other, %: 9.7%
  Premature discontinuation: Subject Requested Withdrawal, %: 6.5%
  Withdrawal/Early Termination, %: 25.8%
[2]; end of treatment period
  reduction in mean triglyceride levels: ~29%
[2]; following 2 weeks of treatment
  reduction in mean triglyceride levels: ~23%
[2]; in vivo
  subjects who dropped out due to AEs: 3.2%
[3]; female, oral, 6 mg/kg/day, females, 6 mg/kg/day, Day 86
  AUC(0-t): 15900 ng·h/mL
[3]; [18]
  Cmax: 635 ng/mL
  Tmax: 1 h
  AUC(0-t): 1480 ng·h/mL
[3]; [19]
  Cmax: 663 ng/mL
  Tmax: 1 h
  AUC(0-t): 2150 ng·h/mL
[3]; [20]
  Cmax: 5120 ng/mL
  Tmax: 1 h
  AUC(0-t): 13600 ng·h/mL
[3]; [21]
  Cmax: 4850 ng/mL
  Tmax: 1 h
[3]; [22]
  Cmax: 9280 ng/mL
  Tmax: 2 h
  AUC(0-t): 63600 ng·h/mL
[3]; [23]
  Cmax: 8430 ng/mL
  Tmax: 1 h
  AUC(0-t): 29600 ng·h/mL
[3]; females
  body weight gain during the study: 0.4 ± 0.79 kg
[3]; females, 20 mg/kg/day
  mean body weight lower than control: 9%
[3]; male, oral, 6 mg/kg/day, males, 6 mg/kg/day, Day 86
  AUC(0-t): 13100 ng·h/mL
[3]; [24]
  Cmax: 507 ng/mL
  Tmax: 1 h
  AUC(0-t): 1570 ng·h/mL
[3]; [25]
  Cmax: 753 ng/mL
  Tmax: 1 h
  AUC(0-t): 2280 ng·h/mL
[3]; [26]
  Cmax: 4640 ng/mL
  Tmax: 1 h
  AUC(0-t): 12800 ng·h/mL
[3]; [27]
  Cmax: 4140 ng/mL
  Tmax: 1 h
[3]; [28]
  Cmax: 11400 ng/mL
  Tmax: 1 h
  AUC(0-t): 47800 ng·h/mL
[3]; [29]
  Cmax: 7230 ng/mL
  Tmax: 1 h
  AUC(0-t): 44000 ng·h/mL
[3]; males
  body weight gain during the study: -0.3 ± 0.58 kg
[3]; males, 20 mg/kg/day
  food consumption less than control: ≥ 10%
  mean body weight lower than control: 13%
[4]
  Mass balance, AP→BL: 62%
  Mass balance, BL→AP: (88%)
